Biological target: T1, GajA (Bacillus cereus, UniProt J8H9C1)
T1 construct: full length residues 1-578, N-terminal 6xHis tag kept (pET28a, NdeI/NotI), expressed in E. coli BL21(DE3), 69 kDa with tag; without GajB
Experiment: inhibition of lambda955 DNA cleavage, agarose gel densitometry
Assay type: biochemical
Conditions: 20 nM lambda955 DNA, 200 nM enzyme, 20 mM Tris-HCl pH 9, 1 mM MgCl2, 37 °C, 5 min; allosteric, ATPase-like domain

T1 sequence (J8H9C1 whole entry, the tested form may be a part): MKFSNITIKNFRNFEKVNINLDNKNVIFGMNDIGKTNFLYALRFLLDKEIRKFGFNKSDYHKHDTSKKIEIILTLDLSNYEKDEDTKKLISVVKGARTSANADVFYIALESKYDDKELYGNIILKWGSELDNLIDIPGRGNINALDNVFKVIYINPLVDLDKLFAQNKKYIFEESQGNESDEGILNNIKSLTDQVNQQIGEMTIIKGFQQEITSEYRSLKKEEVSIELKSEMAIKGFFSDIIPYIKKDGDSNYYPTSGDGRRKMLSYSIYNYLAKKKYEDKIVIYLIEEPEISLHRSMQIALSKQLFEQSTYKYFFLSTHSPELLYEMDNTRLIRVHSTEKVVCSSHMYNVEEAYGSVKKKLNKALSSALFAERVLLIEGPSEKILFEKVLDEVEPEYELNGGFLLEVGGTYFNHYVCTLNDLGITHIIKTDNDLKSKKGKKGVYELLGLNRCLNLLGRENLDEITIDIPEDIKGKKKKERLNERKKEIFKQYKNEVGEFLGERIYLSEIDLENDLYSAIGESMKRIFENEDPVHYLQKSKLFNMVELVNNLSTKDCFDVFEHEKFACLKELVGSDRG

Structure (SMILES): Nc1ncnc2c1ncn2[C@@H]1O[C@H](COP(=O)(O)OP(=O)(O)O)[C@@H](O)[C@H]1O [ADP]
- inhibition: strongly inhibited by all NTP and dNTP, even ADP, while AMP had no significant effect

From publication PMC8136825, “A nucleotide-sensing endonuclease from the Gabija bacterial defense system” (Nucleic Acids Research, 2021)
